Consider eleven molecules from patent publication US20260306639A1, “DEGRADER FOR DECOMPOSING CMET PROTEIN, AND PHARMACEUTICAL COMPOSITION COMPRISING SAME” (INNOCURE THERAPEUTICS, INC., priority 2022, published 2026).

By DC50 is commonly meant the midpoint of the concentration-degradation curve. A higher DC50 goes with degradation only at high concentration. By IC50 is commonly meant the concentration at which inhibition is half-maximal. Read a high IC50 as lower potency.

One assay deals with c-MET. Briefly: c-MET protein degradation (Simple Western), MKN-45 cells. Type of assay: cell-based, human. The settings on record: MKN-45 gastric cancer cells, c-MET overexpressing; 24 hours. The method in brief:
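Cells at 2×10^5 cells/well exposed to compound for 24 h (gastric lines) or 48 h (lung lines). Lysates (3 μg protein) probed for c-MET by capillary Simple Western, normalized to GAPDH and expressed as % of 0.1% DMSO control. DC50 is the concentration giving 50% protein reduction.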

For a further assay, the system named is MKN-45. Briefly: cell viability / antiproliferative activity (WST-8), MKN-45 cells. Format: cell-based. The settings on record: Homo sapiens; MKN-45 gastric cancer cells; 72 hours. Background: Tetrazolium dyes change colour on reduction, which living cells bring about.
The next assay deals with SNU-638. Briefly: cell viability / antiproliferative activity (WST-8), SNU-638 cells. Type of assay: cell-based, human. Conditions: Homo sapiens; SNU-638 gastric cancer cells; 72 hours.

Description for SNU-638: c-MET overexpressing human gastric cancer cell lines [MKN45] and [SNU638] were cultured in RPMI medium with 10% fetal bovine serum, penicillin (100 U/ml), and streptomycin (100 mg/ml), and c-MET exon 14 skipping mutant human gastric cancer cell lines [Hs746T] were cultured in DMEM media. The c-MET overexpressing human lung cancer cell line EBC-1 was cultured in MEM media with the addition of 10% fetal bovine serum, penicillin (100 U/ml), and streptomycin (100 mg/ml). […] The compound synthesized in accordance with the present invention was prepared with a raw material solution of 10 mM dissolved in DMSO (dimethyl sulfoxide), and was sequentially diluted and processed.
In order to observe the inhibitory activity on cell growth, cells were dispensed in a 96-well plate at a concentration of 5,000 cells/well, and then treated with the compound prepared at various concentrations for 72 hours. The viability of the cells was calculated using GraphicPad Prism 8.0 software by adding 10 ml per well of WST-8 (water soluble tetrazolium salt) sample, which reacts with dehydrogenase present in the electron transport system of mitochondria to produce formazon, incubated for 2 hours, and measured absorbance at 450 nm.

In the assay with c-MET, `Cn1cc(-c2cnc3c(nnn3CC3CN(c4ncc(-c5ccc(CN6CCC(CN7CCN(c8ccc9c(=O)n(C%10CCC(=O)NC%10=O)ncc9c8)CC7)CC6)cc5)cn4)CCO3)n2)cn1` [ICT-0000978, 3-(6-(4-((1-(4-(2-((S)-2-((5-(1-methyl-1H-pyrazole-4-yl)-1H-[1,2,3]triazolo[4,5-b]pyrazine-1-yl)methyl)morpholino)pyrimidine-5-il)benzyl)piperidine-4-il)methyl)piperazine-1-yl)1-oxopthalazine-2(1H)-yl)piperidine-2,6-dione] yielded a DC50 of 100 to 1000 nM. In the assay with MKN-45, this molecule yielded an IC50 of less than 100 nM.
The like results for `Cc1nn(C2CCC(=O)NC2=O)c(=O)c2ccc(NCCOCCOCCOCC(=O)N3CCC(COc4cnc(-c5cccc(Cn6nc(-c7cccc(C#N)c7)ccc6=O)c5)nc4)CC3)cc12` (centres unmarked) [ICT-0001088] were, in that order, less than 100 nM and 100 to 1000 nM.
With `Cc1nn(C2CCC(=O)NC2=O)c(=O)c2ccc(NCCOCCOCCOCCOCC(=O)N3CCC(COc4cnc(-c5cccc(Cn6nc(-c7cccc(C#N)c7)ccc6=O)c5)nc4)CC3)cc12` (centres unmarked) [ICT-0001089, 3-(1-(3-(5-((1-(14-((2-(2,6-dioxopiperidine-3-yl)-4-methyl-1-oxo-1,2-dihydrophthalazine-6-yl)amino)3,6,9,12-tetratetradecanoyl)piperidine-4-yl)methoxy)pyrimidin-2-yl)benzyl)6-oxo-1,6-dihydropyridazine-3-yl)benzonitrile], the 50% degradation concentration (DC50) in the assay on c-MET lay within 100 to 1000 nM. Besides, the IC50 in the assay with MKN-45 lay within 100 to 1000 nM.
For `Cc1nn(C2CCC(=O)NC2=O)c(=O)c2cc(N3CCN(C(=O)CN4CCC(COc5cnc(-c6cccc(Cn7nc(-c8cccc(C#N)c8)ccc7=O)c6)nc5)CC4)CC3)ccc12` (centres unmarked) [ICT-0001214, 3-(1-(3-(5-((1-(2-(4-(3-(2,6-dioxopiperidin-3-yl)-1-methyl-4-oxo-3,4-dihydropetalazine-6-yl)piperazine-1-il)acetyl)piperidine-4-il)methoxy)pyrimidine-2-yl)benzyl)6-oxo-1,6-dihydropyridazine-3-yl)benzonitrile], the DC50 with c-MET was less than 100 nM. Also, in the assay with MKN-45, the 50% inhibitory concentration (IC50) was less than 100 nM.
`Cc1nn(C2CCC(=O)NC2=O)c(=O)c2cc(N3CCN(CCCC(=O)N4CCC(COc5cnc(-c6cccc(Cn7nc(-c8cccc(C#N)c8)ccc7=O)c6)nc5)CC4)CC3)ccc12` (centres unmarked) [ICT-0001216, 3-(1-(3-(5-((1-(4-(4-(3-(2,6-dioxopiperidin-3-yl)-1-methyl-4-oxo-3,4-dihydroptalazine-6-yl)piperazine-1-il)butanoyl)piperidine-4-il)methoxy)pyrimidine-2-yl)benzyl)6-oxo-1,6-dihydropyridazine-3-yl)benzonitrile] registered a half-maximal degradation concentration (DC50) in the assay with c-MET of less than 100 nM. The IC50 in the assay on MKN-45 is less than 100 nM.
For the molecule `Cc1nn(C2CCC(=O)NC2=O)c(=O)c2ccc(N3CCN(CC4CCN(CC(=O)N5CCC(COc6cnc(-c7cccc(Cn8nc(-c9cccc(C#N)c9)ccc8=O)c7)nc6)CC5)CC4)CC3)cc12` (centres unmarked) [ICT-0001272], in the assay with c-MET, the DC50 is less than 100 nM. Besides, the IC50 with MKN-45 is less than 100 nM.
In the assay on SNU-638, `N#Cc1cccc(-c2ccc(=O)n(Cc3cccc(-c4ncc(OCC5CCN(CCCCCc6ccc7c(=O)n(C8CCC(=O)NC8=O)ncc7c6)CC5)cn4)c3)n2)c1` (centres unmarked) [ICT-0001304] displayed an IC50 of less than 100 nM.
Consider `N#Cc1cccc(-c2ccc(=O)n(Cc3cccc(-c4ncc(OCC5CCN(CCOCCOCCOCC#Cc6cccc7c(=O)n(C8CCC(=O)NC8=O)ncc67)CC5)cn4)c3)n2)c1` (centres unmarked) [ICT-0001307], for which the IC50 with SNU-638 is less than 100 nM.
For `Cc1nn(C2CCC(=O)NC2=O)c(=O)c2ccc(N3CCN(C4CCN(CCN5CCC(COc6cnc(-c7cccc(Cn8nc(-c9cccc(C#N)c9)ccc8=O)c7)nc6)CC5)CC4)CC3)cc12` (centres unmarked) [ICT-0001317], in the assay with SNU-638, the IC50 was less than 100 nM.
The same measure, in the same setting: the figure for `Cc1nn(C2CCC(=O)NC2=O)c(=O)c2cc(F)c(N3CCN(CC4CCN(CCN5CCC(COc6cnc(-c7cccc(Cn8nc(-c9cccc(C#N)c9)ccc8=O)c7)nc6)CC5)CC4)CC3)cc12` (centres unmarked) [ICT-0001318] is less than 100 nM; for `Cc1nn(C2CCC(=O)NC2=O)c(=O)c2cc(N3CCN(CC4CCN(CCN5CCC(COc6cnc(-c7cccc(Cn8nc(-c9cccc(C#N)c9)ccc8=O)c7)nc6)CC5)CC4)CC3)ccc12` (centres unmarked) [ICT-0001321] it is less than 100 nM.
